Measured values as given in PubChem BioAssay (NCI).
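Compound exposure: 48 hours, 5 concentrations, 96-well plates. TGI marks complete inhibition of growth.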

Columns and labels:
Experiment in all cases: NCI-60 cell line screen, 48 h
786-0 renal = test system: 786-0 renal
A498 renal = test system: A498 renal
A549 NSCLC = test system: A549 NSCLC
ACHN renal = test system: ACHN renal
BT-549 breast = test system: BT-549 breast
CAKI-1 renal = test system: CAKI-1 renal
CCRF-CEM leukemia = test system: CCRF-CEM leukemia
COLO 205 colon = test system: COLO 205 colon
DU-145 prostate = test system: DU-145 prostate
EKVX NSCLC = test system: EKVX NSCLC
HCC-2998 colon = test system: HCC-2998 colon
HCT-116 colon = test system: HCT-116 colon
HCT-15 colon = test system: HCT-15 colon
HL-60(TB) leukemia = test system: HL-60(TB) leukemia
HOP-62 NSCLC = test system: HOP-62 NSCLC
HOP-92 NSCLC = test system: HOP-92 NSCLC
HS 578T breast = test system: HS 578T breast
HT29 colon = test system: HT29 colon
IGROV1 ovarian = test system: IGROV1 ovarian
KM12 colon = test system: KM12 colon
LOX IMVI melanoma = test system: LOX IMVI melanoma
M14 melanoma = test system: M14 melanoma
MALME-3M melanoma = test system: MALME-3M melanoma
MCF7 breast = test system: MCF7 breast
MDA-MB-231 breast = test system: MDA-MB-231 breast
MDA-MB-435 = test system: MDA-MB-435
MDA-N = test system: MDA-N
MOLT-4 leukemia = test system: MOLT-4 leukemia
NCI-H226 lung = test system: NCI-H226 lung
NCI-H23 lung = test system: NCI-H23 lung
NCI-H460 lung = test system: NCI-H460 lung
NCI-H522 lung = test system: NCI-H522 lung
NCI/ADR-RES ovarian = test system: NCI/ADR-RES ovarian
OVCAR-4 ovarian = test system: OVCAR-4 ovarian
OVCAR-5 ovarian = test system: OVCAR-5 ovarian
OVCAR-8 ovarian = test system: OVCAR-8 ovarian
PC-3 prostate = test system: PC-3 prostate
RXF 393 renal = test system: RXF 393 renal
SF-268 CNS = test system: SF-268 CNS
SF-295 CNS = test system: SF-295 CNS
SF-539 CNS = test system: SF-539 CNS
SK-MEL-2 melanoma = test system: SK-MEL-2 melanoma
SK-MEL-28 melanoma = test system: SK-MEL-28 melanoma
SK-MEL-5 melanoma = test system: SK-MEL-5 melanoma
SN12C renal = test system: SN12C renal
SNB-19 CNS = test system: SNB-19 CNS
SNB-75 CNS = test system: SNB-75 CNS
SW-620 colon = test system: SW-620 colon
T-47D breast = test system: T-47D breast
TK-10 renal = test system: TK-10 renal
U251 CNS = test system: U251 CNS
UACC-257 melanoma = test system: UACC-257 melanoma
UO-31 renal = test system: UO-31 renal
K-562 leukemia = test system: K-562 leukemia
OVCAR-3 ovarian = test system: OVCAR-3 ovarian
RPMI-8226 leukemia = test system: RPMI-8226 leukemia
SK-OV-3 ovarian = test system: SK-OV-3 ovarian

With `O=c1cn[nH]c2nc3ccccc3n12` the TGI (786-0 renal) was > 100 µM, the TGI (A498 renal) was > 100 µM and the TGI (A549 NSCLC) was > 100 µM. The TGI (ACHN renal) was > 100 µM, the TGI (BT-549 breast) was > 100 µM and the TGI (CAKI-1 renal) was > 100 µM. The TGI (CCRF-CEM leukemia) was > 100 µM, the TGI (COLO 205 colon) was > 100 µM and the TGI (DU-145 prostate) was > 100 µM. The TGI (EKVX NSCLC) was > 100 µM, the TGI (HCC-2998 colon) was > 100 µM and the TGI (HCT-116 colon) was > 100 µM. For the same compound, the TGI (HCT-15 colon) was > 100 µM, the TGI (HL-60(TB) leukemia) was > 100 µM and the TGI (HOP-62 NSCLC) was > 100 µM. The TGI (HOP-92 NSCLC) was > 100 µM, the TGI (HS 578T breast) was > 100 µM and the TGI (HT29 colon) was > 100 µM. For the same compound, the TGI (IGROV1 ovarian) was > 100 µM, the TGI (KM12 colon) was > 100 µM and the TGI (LOX IMVI melanoma) was > 100 µM. The TGI (M14 melanoma) was > 100 µM, the TGI (MALME-3M melanoma) was > 100 µM and the TGI (MCF7 breast) was > 100 µM. For the same compound, the TGI (MDA-MB-231 breast) was > 100 µM, the TGI (MDA-MB-435) was > 100 µM and the TGI (MDA-N) was > 100 µM. For the same compound, the TGI (MOLT-4 leukemia) was > 100 µM, the TGI (NCI-H226 lung) was > 100 µM and the TGI (NCI-H23 lung) was > 100 µM. For the same compound, the TGI (NCI-H460 lung) was > 100 µM, the TGI (NCI-H522 lung) was > 100 µM and the TGI (NCI/ADR-RES ovarian) was > 100 µM. For the same compound, the TGI (OVCAR-4 ovarian) was > 100 µM, the TGI (OVCAR-5 ovarian) was > 100 µM and the TGI (OVCAR-8 ovarian) was > 100 µM. The TGI (PC-3 prostate) was > 100 µM, the TGI (RXF 393 renal) was > 100 µM and the TGI (SF-268 CNS) was > 100 µM. The TGI (SF-295 CNS) was > 100 µM, the TGI (SF-539 CNS) was > 100 µM and the TGI (SK-MEL-2 melanoma) was > 100 µM. The TGI (SK-MEL-28 melanoma) was > 100 µM, the TGI (SK-MEL-5 melanoma) was > 100 µM and the TGI (SN12C renal) was > 100 µM. The TGI (SNB-19 CNS) was > 100 µM, the TGI (SNB-75 CNS) was > 100 µM and the TGI (SW-620 colon) was > 100 µM. The TGI (T-47D breast) was > 100 µM, the TGI (TK-10 renal) was > 100 µM and the TGI (U251 CNS) was > 100 µM. For the same compound, the TGI (UACC-257 melanoma) was > 100 µM and the TGI (UO-31 renal) was > 100 µM.

For `C=CC(O)(CBr)CCC(Br)C(C)(C)Cl` (stereo not drawn), the TGI (786-0 renal) was > 10 µM, the TGI (A498 renal) was > 10 µM and the TGI (A549 NSCLC) was > 10 µM. The TGI (ACHN renal) was > 10 µM, the TGI (BT-549 breast) was > 10 µM and the TGI (CAKI-1 renal) was > 10 µM. For the same compound, the TGI (CCRF-CEM leukemia) was > 10 µM, the TGI (COLO 205 colon) was > 10 µM and the TGI (DU-145 prostate) was > 10 µM. For the same compound, the TGI (EKVX NSCLC) was > 10 µM, the TGI (HCC-2998 colon) was > 10 µM and the TGI (HCT-116 colon) was > 10 µM. For the same compound, the TGI (HCT-15 colon) was > 10 µM, the TGI (HOP-62 NSCLC) was > 10 µM and the TGI (HOP-92 NSCLC) was > 10 µM. For the same compound, the TGI (HS 578T breast) was > 10 µM, the TGI (HT29 colon) was > 10 µM and the TGI (IGROV1 ovarian) was > 10 µM. The TGI (K-562 leukemia) was > 10 µM, the TGI (KM12 colon) was > 10 µM and the TGI (M14 melanoma) was > 10 µM. The TGI (MALME-3M melanoma) was > 10 µM, the TGI (MCF7 breast) was > 10 µM and the TGI (MDA-MB-231 breast) was > 10 µM. The TGI (MDA-MB-435) was > 10 µM, the TGI (MDA-N) was > 10 µM and the TGI (MOLT-4 leukemia) was > 10 µM. For the same compound, the TGI (NCI-H226 lung) was > 10 µM, the TGI (NCI-H23 lung) was > 10 µM and the TGI (NCI-H460 lung) was > 10 µM. The TGI (NCI-H522 lung) was > 10 µM, the TGI (NCI/ADR-RES ovarian) was > 10 µM and the TGI (OVCAR-3 ovarian) was > 10 µM. For the same compound, the TGI (OVCAR-4 ovarian) was > 10 µM, the TGI (OVCAR-5 ovarian) was > 10 µM and the TGI (OVCAR-8 ovarian) was > 10 µM. The TGI (PC-3 prostate) was > 10 µM, the TGI (RPMI-8226 leukemia) was > 10 µM and the TGI (RXF 393 renal) was > 10 µM. For the same compound, the TGI (SF-268 CNS) was > 10 µM, the TGI (SF-295 CNS) was > 10 µM and the TGI (SF-539 CNS) was > 10 µM. The TGI (SK-MEL-2 melanoma) was > 10 µM, the TGI (SK-MEL-28 melanoma) was > 10 µM and the TGI (SK-MEL-5 melanoma) was > 10 µM. For the same compound, the TGI (SK-OV-3 ovarian) was > 10 µM, the TGI (SN12C renal) was > 10 µM and the TGI (SNB-19 CNS) was > 10 µM. For the same compound, the TGI (SNB-75 CNS) was > 10 µM, the TGI (SW-620 colon) was > 10 µM and the TGI (T-47D breast) was > 10 µM. For the same compound, the TGI (TK-10 renal) was > 10 µM, the TGI (U251 CNS) was > 10 µM and the TGI (UACC-257 melanoma) was > 10 µM. For the same compound, the TGI (UO-31 renal) was > 10 µM.
